Results from patent US20260060960A1, “GAMMA-SECRETASE INHIBITORS FOR USE IN THE TREATMENT OF INHERITED EPIDERMOLYSIS BULLOSA” (OSPEDALE PEDIATRICO BAMBINO GESU', priority 2022, published 2026).
d = 2'-deoxy (DNA); r = 2'-OH (RNA)

Key:
Type in all cases: cell-based, human
[1] = test system: JAG1; assay: Immunoblotting of JAG1 after siRNA transfection (silencing efficiency); conditions: RDEB-FBs; for JAG1 expression levels (immunoblotting): 48 h after transfection, absence of TGF-β1, vs Scramble
Text: Transfection of short interfering RNAs targeting Jagged 1. Two candidate short interfering RNA (siRNA) sequences complementary to different regions of the human JAG1 mRNA, si-JAG1-1 and si-JAG1-2, were chosen to be functionally evaluated in the context of transfection experiments. siJAG1-1 and siJAG1-2 sequences are indicated below: 5′-GAAUGUGAGGCCAAACCUU[dT][dT]-3′ (SEQ ID NO:1) (si-JAG1-1, cod. SASI_Hs01_00100441) and 5′-CCUGUAACAUAGCCCGAAA[dT][dT]-3′ (SEQ ID NO:2) (si-JAG1-2, cod. SASI_Hs01_00100442). Both siRNAs were purchased from Merck (Merck, Darmstadt, Germany). Lipofectamine 2000 (Thermo Fisher Scientific, Waltham, MA, USA) was used to transfect siRNAs, following manufacturer's protocol. After 48 h, the silencing efficiency of the two candidate siRNAs was assessed by immunoblotting (IB) (FIG. 2). […] Accordingly, si-JAG1-2, throughout the text indicated as si-JAG1, was selected for all downstream silencing experiments. The MISSION® siRNA Universal Negative Control #1 (Merck) was used as negative control for siRNA transfections.
(§1) Whole-cell lysates were obtained in radioimmunoprecipitation assay (RIPA) buffer (Sigma-Aldrich) supplemented with phosphatase- and protease inhibitors (Merck). Different amounts of protein lysates were run under reducing conditions by using 4-12% gradient precast gels (Thermo Fisher Scientific) or hand-casting polyacrylamide gels (4-8%), depending on the protein to be assayed. Amersham™ Protran® Premium nitrocellulose membranes (pore size 0.2 μm) (Merck) were immunoblotted with primary antibodies indicated in Table 3 and incubated with horseradish peroxidase-linked secondary antibodies.

[2] = test system: primary fibroblasts from RDEB patients (RDEB-FBs); assay: Collagen lattice contraction (CLC) assay; conditions: RDEB-FBs vs Scramble siRNA, with and without TGF-β1
Experimental: RDEB-FBs (5×10^5 cells) were mixed in a collagen buffer and seeded into 12-well plates as previously described. After gelation, fibroblast-populated collagen lattices were detached from the wells and left floating. RDEB-FBs were treated with 20 μM of DAPT and PF-03804014 in DMEM containing 0.1% BSA, in the presence or absence of TGF-β1 at 2 ng/mL, as contraction booster. JAG1-silenced RDEB-FBs were embedded in collagen lattices 24 h after siRNA transfection. In both cases, images were acquired with ChemiDoc™ XRS+ System (Bio-Rad, Hercules, CA, USA) at the detachment of collagen lattices from the wells (time 0, TO) and after 48 h. Gel areas were measured by ImageJ software and photos at TO were used as references.

[3] = test system: α-SMA, TAGLN, CNN1, JAG1; assay: Immunoblotting of myofibroblast/fibrotic markers in RDEB fibroblasts; conditions: RDEB-FBs vs Scramble, treated or not with TGF-β1
Text: as §1
Detection was performed using Cytiva ECL™ Prime Western Blotting System (Merck) or SuperSignal West Femto (Thermo Fisher Scientific), depending on the protein to be assayed. Antibody against Notch1 (all forms; clone bTAN20) was obtained from the Developmental Studies Hybridoma Bank (DSHB) at the University of Iowa (DSHB, Iowa City, IA, USA). GAPDH (clone 14C10), Jagged1 (clone 28H8) and NOTCH1 intracellular domain (clone D3B8) were obtained from Cell Signaling (Cell Signaling Technology Inc., Beverly, MA, USA). Antibodies against TAGLN (clone #859112) and CNN1 (clone #836701) were from R&D Systems (R&D Systems, Inc. Minneapolis, MN, USA). Antibody against α-SMA (clone 1A4) was purchased from Sigma-Aldrich. Antibody against lamin B1 (LMNB1) was from Abcam (Cambridge, UK). […]

Substance	JAG1 expression levels (immunoblotting) [1]	cell ability to contract type I collagen matrix after JAG1 silencing [2]	protein levels of α-SMA, CNN1, TAGLN, JAG1, NOTCH FL after JAG1 silencing [3]	JAG1 protein levels (immunoblotting) ([1]; presence of TGF-β1 2 ng/mL for 24 h, compared with si-JAG1-1)
si-JAG1-1: short interfering RNA targeting human JAG1 mRNA, 5′-GAAUGUGAGGCCAAACCUU[dT][dT]-3′ (SEQ ID NO:1) (sense GAAUGUGAGGCCAAACCUUTT; sugars from the 5' end r19 d2, backbone and methylation of C not given here)	able to reduce JAG1 expression levels			
si-JAG1-2: short interfering RNA targeting human JAG1 mRNA, 5′-CCUGUAACAUAGCCCGAAA[dT][dT]-3′ (SEQ ID NO:2); indicated as si-JAG1 throughout (sense CCUGUAACAUAGCCCGAAATT; sugars from the 5' end r19 d2, backbone and methylation of C not given here)	able to reduce JAG1 expression levels	reduced	significant reduction of α-SMA, CNN1, TAGLN, JAG1 and unprocessed NOTCH1 receptor	major reduction of JAG1 protein levels
